Laboratory results: ChEMBL document CHEMBL6096737, “Discovery of Pyrrolopyrazine Carboxamide Derivatives as Potent and Selective FGFR2/3 Inhibitors that Overcome Mutant Resistance” (J Med Chem, 2025)
Each block holds one compound with its values, some of them ahead of it.

How the values were obtained:
in vivo [1] = conditions: female, CD-1, mouse, po, 10 mg/kg
in vitro = conditions: human, plasma
in vivo [2] = conditions: female, CD-1, mouse, plasma, iv, 1 mg/kg
in vivo [3] = conditions: female, CD-1, mouse, po, 10 mg/kg; remark: listed apart in the source
physchem [4] = conditions: glutathione (GSH) solution, 0.1 uM GSH
physchem [5] = conditions: glutathione (GSH) solution, 1 uM GSH
in vivo [6] = conditions: male, Sprague-Dawley, rat, po, 10 mg/kg
in vivo [7] = conditions: male, Sprague-Dawley, rat, po, 10 mg/kg; remark: listed apart in the source
in vivo [8] = conditions: male, Beagle, dog, plasma, iv, 1 mg/kg
in vivo [9] = conditions: female, CD-1, mouse, po, 10 mg/kg; remark: listed apart in the source
in vivo [10] = conditions: female, CD-1, mouse, po, 10 mg/kg; remark: listed apart in the source
in vivo [11] = conditions: male, Beagle, dog, po, 5 mg/kg
in vivo [12] = conditions: female, CD-1, mouse, po, 10 mg/kg; remark: listed apart in the source
in vivo [13] = conditions: male, Beagle, dog, po, 5 mg/kg; remark: listed apart in the source
in vivo [14] = conditions: male, Sprague-Dawley, rat, po, 10 mg/kg; remark: listed apart in the source
in vivo [15] = conditions: male, Beagle, dog, po, 5 mg/kg; remark: listed apart in the source
in vivo [16] = conditions: female, Balb/c, mouse, po, 10 mg/kg
in vivo [17] = conditions: male, Beagle, dog, po, 5 mg/kg; remark: listed apart in the source
in vivo [18] = conditions: male, Beagle, dog, po, 5 mg/kg; remark: listed apart in the source
in vivo [19] = conditions: female, Balb/c, mouse, po, 10 mg/kg; remark: listed apart in the source
in vivo [20] = conditions: male, Sprague-Dawley, rat, po, 10 mg/kg; remark: listed apart in the source
in vivo [21] = conditions: male, Sprague-Dawley, rat, po, 10 mg/kg; remark: listed apart in the source
in vivo [22] = conditions: female, Balb/c, mouse, po, 10 mg/kg; remark: listed apart in the source
in vivo [23] = conditions: male, Sprague-Dawley, rat, plasma, iv, 1 mg/kg

bioavailability at 24 h (in vivo [1]): 41.9% | half-life (in vitro): > 4.82 h | clearance at 24 h (in vivo [2]): 29.1 mL/min/kg | AUC(0-t) at 24 h (in vivo [3]): 2470 ng·h/mL
SMILES: C=C(F)C(=O)Nc1ccc(-c2c(-c3ccc(Oc4nccc(C)n4)cc3)c(C(N)=O)c3cnc(C)cn23)c(F)c1

half-life (physchem [4]): 0.8 h | half-life (physchem [5]): 0.9 h
SMILES: C=C(CO)C(=O)Nc1ccc(-c2c(-c3ccc(Oc4nccc(C)n4)cc3)c(C(N)=O)c3cnc(C)cn23)cc1

half-life at 24 h (in vivo [6]): 0.77 h | MRT last at 24 h (in vivo [7]): 0.23 h | clearance at 24 h (in vivo [8]): 24.9 mL/min/kg | half-life at 24 h (in vivo [9]): 2.4 h | MRT last at 24 h (in vivo [10]): 2 h | half-life at 24 h (in vivo [11]): 2.3 h | Cmax at 24 h (in vivo [12]): 5760 ng/mL | half-life (in vitro): > 4.82 h | bioavailability at 24 h (in vivo [13]): 75.4% | Cmax at 24 h (in vivo [14]): 111 ng/mL | AUC(0-t) at 24 h (in vivo [15]): 2680 ng·h/mL | AUC(0-t) at 8 h (in vivo [16]): 20000 ng·h/mL | MRT last at 24 h (in vivo [17]): 0.87 h | Cmax at 24 h (in vivo [18]): 1360 ng/mL | MRT last at 8 h (in vivo [19]): 2.7 h | AUC(0-t) at 24 h (in vivo [20]): 448 ng·h/mL | bioavailability at 24 h (in vivo [21]): 16% | Cmax at 8 h (in vivo [22]): 3740 ng/mL | clearance at 24 h (in vivo [23]): 59.4 mL/min/kg
SMILES: C=C(C)C(=O)Nc1ccc(-c2c(-c3ccc(Oc4nccc(C)n4)c(F)c3)c3c(N)ncnc3n2C)cc1 [LIRAFUGRATINIB]
